Data taken from ChEMBL document CHEMBL3867477 (Bioorg Med Chem Lett, 2016).
pIC50, pKd, pKi: −log10 of the molar value. Values after ≈ are worked out from the molar mass of the structure shown.

What was measured:
[1] = Protein binding in dog plasma; format: ADME, cell-free, Canis lupus familiaris; details: read-out: PPB (converted)
[2] = AUC in rat at 20 mg/kg, po; format: ADME, organism-based; details: in vivo
CHO = assay: Selectivity index, ratio of Ki for human OX2 receptor expressed on CHO cell membrane to Ki for Ile408-Val variant human OX1 receptor expressed on CHO cell membrane; format: cell-based
[3] = Cmax in rat at 20 mg/kg, po; format: ADME, organism-based; set-up: dose 20 mg/kg, route oral; details: in vivo
[4] = Oral bioavailability in rhesus monkey at 30 mg/kg; format: ADME, organism-based, Macaca mulatta; details: in vivo
[5] = molecular target: T1, Orexin/Hypocretin receptor type 1 (Homo sapiens, UniProt O43613); assay: Binding affinity to OX1 receptor (unknown origin)
T1 sequence (O43613 whole entry): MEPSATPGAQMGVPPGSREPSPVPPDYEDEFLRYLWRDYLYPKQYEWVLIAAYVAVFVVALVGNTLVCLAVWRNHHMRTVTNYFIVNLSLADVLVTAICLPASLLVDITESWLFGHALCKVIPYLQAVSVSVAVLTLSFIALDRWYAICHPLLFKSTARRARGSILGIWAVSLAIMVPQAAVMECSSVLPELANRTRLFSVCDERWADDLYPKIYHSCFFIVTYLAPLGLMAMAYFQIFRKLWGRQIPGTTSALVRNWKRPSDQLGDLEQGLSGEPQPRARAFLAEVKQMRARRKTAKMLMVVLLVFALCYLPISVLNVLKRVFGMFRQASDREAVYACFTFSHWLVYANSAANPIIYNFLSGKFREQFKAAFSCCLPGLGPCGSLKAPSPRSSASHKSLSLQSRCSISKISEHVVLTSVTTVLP

Orexin receptor type 2 [6] = molecular target: T2, Orexin receptor type 2 (Homo sapiens, UniProt O43614); format: functional, cell-based, CHO
T2 sequence (O43614 whole entry): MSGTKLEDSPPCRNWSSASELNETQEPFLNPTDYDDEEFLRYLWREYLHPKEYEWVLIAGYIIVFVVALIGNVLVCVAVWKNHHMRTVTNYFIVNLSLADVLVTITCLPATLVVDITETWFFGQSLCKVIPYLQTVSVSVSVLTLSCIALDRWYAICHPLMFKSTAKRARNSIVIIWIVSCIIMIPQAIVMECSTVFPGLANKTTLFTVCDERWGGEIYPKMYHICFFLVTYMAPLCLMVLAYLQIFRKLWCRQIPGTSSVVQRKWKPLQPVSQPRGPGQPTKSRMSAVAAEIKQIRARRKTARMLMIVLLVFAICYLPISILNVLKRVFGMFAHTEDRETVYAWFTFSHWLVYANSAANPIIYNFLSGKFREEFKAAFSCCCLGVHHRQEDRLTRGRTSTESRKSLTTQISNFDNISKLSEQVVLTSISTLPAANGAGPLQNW
Description: Antagonist activity at human OX2 receptor expressed on CHO cell membrane assessed as inhibition of Ala-6,12 orexin-A-induced calcium increase preincubated for 5 mins prior to Ala-6,12 orexin-A addition measured at 1 sec intervals for 1 min by Fluo-4AM dye-based FLIPR assay

Orexin receptor type 2 [7] = molecular target: T3, Orexin receptor type 2 (Rattus norvegicus, UniProt P56719); format: functional
T3 sequence (P56719 whole entry): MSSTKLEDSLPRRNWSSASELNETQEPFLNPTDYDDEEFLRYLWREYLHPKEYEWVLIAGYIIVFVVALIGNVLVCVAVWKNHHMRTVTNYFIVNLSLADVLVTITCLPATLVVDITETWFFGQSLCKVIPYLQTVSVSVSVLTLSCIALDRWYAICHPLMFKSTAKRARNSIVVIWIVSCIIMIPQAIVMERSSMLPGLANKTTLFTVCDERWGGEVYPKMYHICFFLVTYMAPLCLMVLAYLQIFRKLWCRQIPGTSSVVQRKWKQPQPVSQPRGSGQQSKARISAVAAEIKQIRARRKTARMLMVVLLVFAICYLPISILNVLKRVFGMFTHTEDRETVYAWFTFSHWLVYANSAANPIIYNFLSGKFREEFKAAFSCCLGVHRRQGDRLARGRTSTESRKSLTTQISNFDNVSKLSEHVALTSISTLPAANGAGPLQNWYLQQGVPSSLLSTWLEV
Description: Antagonist activity at rat OX2 receptor assessed as inhibition of Ala-6,12 orexin-A-induced calcium increase preincubated for 5 mins prior to Ala-6,12 orexin-A addition measured at 1 sec intervals for 1 min by Fluo-4AM dye-based FLIPR assay

[8] = molecular target: T4, Orexin/Hypocretin receptor type 1 (Rattus norvegicus, UniProt P56718); assay: Antagonist activity at rat OX1 receptor assessed as inhibition of Ala-6,12 orexin-A-induced calcium increase preincubated for 5 mins prior to Ala-6,12 orexin-A addition measured at 1 sec intervals for 1 min by Fluo-4AM dye-based FLIPR assay; format: functional
T4 sequence (P56718 whole entry): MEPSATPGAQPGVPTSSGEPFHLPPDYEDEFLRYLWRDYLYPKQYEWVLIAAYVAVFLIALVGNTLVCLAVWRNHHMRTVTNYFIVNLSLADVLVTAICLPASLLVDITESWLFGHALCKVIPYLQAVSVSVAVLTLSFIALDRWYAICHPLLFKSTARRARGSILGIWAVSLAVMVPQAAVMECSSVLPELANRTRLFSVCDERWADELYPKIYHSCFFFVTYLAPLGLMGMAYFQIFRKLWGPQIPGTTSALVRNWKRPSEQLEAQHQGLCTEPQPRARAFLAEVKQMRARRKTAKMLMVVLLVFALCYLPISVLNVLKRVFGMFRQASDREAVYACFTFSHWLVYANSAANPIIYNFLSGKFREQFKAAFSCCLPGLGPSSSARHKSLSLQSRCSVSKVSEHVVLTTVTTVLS

[9] = Oral bioavailability in rat at 10 mg/kg; format: ADME, organism-based; details: in vivo
[10] = Intrinsic clearance in dog liver microsomes; format: ADME, Canis lupus familiaris; details: read-out: CLH
[11] = Protein binding in human plasma; format: ADME, cell-free; details: read-out: PPB (converted)
Orexin receptor type 2 [12] = molecular target: T2, Orexin receptor type 2; assay: Displacement of (2S)-N-(2-pyrrol-1-ylphenyl)-1-[2-[1-(tritritiomethyl)benzimidazol-2-yl]sulfanylacetyl]pyrrolidine-2-carboxamide from human OX2 receptor expressed on CHO cell membrane measured after 3 hrs by TopCount method; format: cell membranes
[13] = Clearance in rat at 2 mg/kg, iv; format: ADME, organism-based; details: in vivo
[14] = molecular target: T5, Orexin/Hypocretin receptor type 1 (Homo sapiens) (UniProt O43613); assay: Binding affinity to OX1 receptor (unknown origin) assessed as association rate constant
T5 sequence (whole entry): T1 sequence (O43613 whole entry)

[15] = Cmax in rat at 10 mg/kg, po; format: ADME, organism-based; set-up: dose 10 mg/kg, route oral; details: in vivo
[16] = Aqueous solubility of the compound at pH 2; format: physicochemical; details: aqueous medium
Rattus norvegicus [17] = species on record: Rattus norvegicus; assay: Selectivity index, ratio of IC50 for rat OX2 receptor to IC50 for rat OX1 receptor
[18] = Antagonist activity at human OX1 receptor Ile408-Val mutant expressed on CHO cell membrane assessed as inhibition of Ala-6,12 orexin-A-induced calcium increase preincubated for 5 mins prior to Ala-6,12 orexin-A addition measured at 1 sec intervals for 1 min by Fluo-4AM dye-based FLIPR assay
Rattus norvegicus [19] = assay: Displacement of (2S)-N-(2-phenylphenyl)-1-[2-[1-(tritritiomethyl)benzimidazol-2-yl]sulfanylacetyl]pyrrolidine-2-carboxamide from human OX1R expressed in transgenic rat brain administered orally; format: functional
[20] = Protein binding in rhesus monkey plasma; format: ADME, cell-free, Macaca mulatta; details: read-out: PPB (converted)
[21] = AUC in rat at 10 mg/kg, po; format: ADME, organism-based; details: in vivo
[22] = Apparent permeability of the compound; format: ADME; details: not told
[23] = AUC in rat at 50 mg/kg, po; format: ADME, organism-based; details: in vivo
[24] = Intrinsic clearance in human liver microsomes; format: ADME; details: read-out: CLH
[25] = Half life in rhesus monkey at 2 mg/kg, iv or 10 mg/kg, po; format: ADME, organism-based, Macaca mulatta; details: in vivo
[26] = Aqueous solubility of the compound at pH 7; format: physicochemical; details: aqueous medium
[27] = Clearance in dog at 0.5 mg/kg, iv or 10 mg/kg, po; format: ADME, organism-based, Canis lupus familiaris; details: in vivo
[28] = Half life in dog at 0.5 mg/kg, iv or 10 mg/kg, po; format: ADME, organism-based, Canis lupus familiaris; details: in vivo
[29] = Intrinsic clearance in rat liver microsomes; format: ADME; details: read-out: CLH
[30] = Oral bioavailability in dog at 3 mg/kg; format: ADME, organism-based, Canis lupus familiaris; details: in vivo
[31] = molecular target: T5, Orexin/Hypocretin receptor type 1 (Homo sapiens); assay: Binding affinity to OX1 receptor (unknown origin) assessed as dissociation rate constant
[32] = Half life in rat at 2 mg/kg, iv or 10 mg/kg, po; format: ADME, organism-based; details: in vivo
[33] = Protein binding in rat plasma; format: ADME, cell-free; details: read-out: PPB (converted)
[34] = Selectivity index, ratio of IC50 for human OX1 receptor to IC50 for rat OX1 receptor
[35] = Intrinsic clearance in rhesus monkey liver microsomes; format: ADME, Macaca mulatta; details: read-out: CLH
[36] = Displacement of (2S)-N-(2-phenylphenyl)-1-[2-[1-(tritritiomethyl)benzimidazol-2-yl]sulfanylacetyl]pyrrolidine-2-carboxamide from human OX1 receptor Ile408-Val mutant expressed on CHO cell membrane measured after 3 hrs by TopCount method; format: cell membranes
[37] = Clearance in rhesus monkey at 2 mg/kg, iv or 10 mg/kg, po; format: ADME, organism-based, Macaca mulatta; details: in vivo
[38] = Cmax in rat at 50 mg/kg, po; format: ADME, organism-based; set-up: dose 50 mg/kg, route oral; details: in vivo
[39] = molecular target: Sodium channel protein type 5 subunit alpha (Homo sapiens, UniProt Q14524); assay: Inhibition of Nav1.5 (unknown origin)
Sodium channel protein type 5 subunit alpha, sequence (Q14524 whole entry): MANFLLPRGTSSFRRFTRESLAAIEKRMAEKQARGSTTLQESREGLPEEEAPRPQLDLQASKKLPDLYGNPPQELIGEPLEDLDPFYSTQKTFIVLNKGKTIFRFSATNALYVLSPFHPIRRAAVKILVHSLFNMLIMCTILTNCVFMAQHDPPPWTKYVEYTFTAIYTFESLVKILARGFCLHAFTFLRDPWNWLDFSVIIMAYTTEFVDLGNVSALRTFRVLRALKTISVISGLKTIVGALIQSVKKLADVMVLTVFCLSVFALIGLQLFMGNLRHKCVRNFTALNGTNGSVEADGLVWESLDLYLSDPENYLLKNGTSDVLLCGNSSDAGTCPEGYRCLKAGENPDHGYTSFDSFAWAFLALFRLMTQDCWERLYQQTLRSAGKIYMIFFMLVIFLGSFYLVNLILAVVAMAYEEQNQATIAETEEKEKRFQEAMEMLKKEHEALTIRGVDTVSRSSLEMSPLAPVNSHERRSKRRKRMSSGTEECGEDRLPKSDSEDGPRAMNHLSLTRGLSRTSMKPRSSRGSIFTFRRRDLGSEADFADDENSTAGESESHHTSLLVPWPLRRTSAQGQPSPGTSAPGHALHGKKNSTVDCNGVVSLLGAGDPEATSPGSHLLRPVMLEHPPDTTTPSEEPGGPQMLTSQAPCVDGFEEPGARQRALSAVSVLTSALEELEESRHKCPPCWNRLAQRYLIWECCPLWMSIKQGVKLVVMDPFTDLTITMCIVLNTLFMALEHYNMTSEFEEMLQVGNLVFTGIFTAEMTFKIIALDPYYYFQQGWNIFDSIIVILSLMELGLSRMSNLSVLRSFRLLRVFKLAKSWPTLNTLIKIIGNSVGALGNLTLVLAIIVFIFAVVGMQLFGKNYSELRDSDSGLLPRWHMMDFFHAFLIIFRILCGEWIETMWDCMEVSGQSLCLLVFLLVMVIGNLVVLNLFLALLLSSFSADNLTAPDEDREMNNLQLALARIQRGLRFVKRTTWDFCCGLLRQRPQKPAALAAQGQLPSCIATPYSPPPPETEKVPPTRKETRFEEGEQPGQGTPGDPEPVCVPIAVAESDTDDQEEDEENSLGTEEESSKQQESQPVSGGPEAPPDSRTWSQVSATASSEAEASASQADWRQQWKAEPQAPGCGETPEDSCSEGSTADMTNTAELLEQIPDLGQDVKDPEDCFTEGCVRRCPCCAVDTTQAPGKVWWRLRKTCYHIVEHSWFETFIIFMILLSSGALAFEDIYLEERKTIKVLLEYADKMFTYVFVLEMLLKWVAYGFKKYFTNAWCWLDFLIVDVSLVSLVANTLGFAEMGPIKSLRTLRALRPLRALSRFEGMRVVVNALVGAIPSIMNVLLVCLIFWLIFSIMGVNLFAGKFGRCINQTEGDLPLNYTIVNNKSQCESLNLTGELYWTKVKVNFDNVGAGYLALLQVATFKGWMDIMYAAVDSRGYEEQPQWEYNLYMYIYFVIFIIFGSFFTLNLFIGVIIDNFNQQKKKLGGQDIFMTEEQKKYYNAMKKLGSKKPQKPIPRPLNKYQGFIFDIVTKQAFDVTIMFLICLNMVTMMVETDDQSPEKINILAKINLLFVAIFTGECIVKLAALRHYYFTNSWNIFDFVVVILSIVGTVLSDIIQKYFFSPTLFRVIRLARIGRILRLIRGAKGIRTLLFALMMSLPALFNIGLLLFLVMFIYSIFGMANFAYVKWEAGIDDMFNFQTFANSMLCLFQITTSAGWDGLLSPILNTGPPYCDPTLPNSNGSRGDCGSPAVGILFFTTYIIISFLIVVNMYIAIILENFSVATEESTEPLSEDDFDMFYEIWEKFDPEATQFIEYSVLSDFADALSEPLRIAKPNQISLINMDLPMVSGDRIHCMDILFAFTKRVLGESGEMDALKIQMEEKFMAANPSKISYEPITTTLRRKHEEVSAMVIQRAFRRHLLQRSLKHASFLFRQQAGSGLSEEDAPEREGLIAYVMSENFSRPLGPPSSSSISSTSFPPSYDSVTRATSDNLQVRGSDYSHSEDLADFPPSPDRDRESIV

[40] = molecular target: Voltage-dependent L-type calcium channel subunit alpha-1C (Homo sapiens, UniProt Q13936); assay: Inhibition of Cav1.2 (unknown origin)
Voltage-dependent L-type calcium channel subunit alpha-1C, sequence (Q13936 whole entry): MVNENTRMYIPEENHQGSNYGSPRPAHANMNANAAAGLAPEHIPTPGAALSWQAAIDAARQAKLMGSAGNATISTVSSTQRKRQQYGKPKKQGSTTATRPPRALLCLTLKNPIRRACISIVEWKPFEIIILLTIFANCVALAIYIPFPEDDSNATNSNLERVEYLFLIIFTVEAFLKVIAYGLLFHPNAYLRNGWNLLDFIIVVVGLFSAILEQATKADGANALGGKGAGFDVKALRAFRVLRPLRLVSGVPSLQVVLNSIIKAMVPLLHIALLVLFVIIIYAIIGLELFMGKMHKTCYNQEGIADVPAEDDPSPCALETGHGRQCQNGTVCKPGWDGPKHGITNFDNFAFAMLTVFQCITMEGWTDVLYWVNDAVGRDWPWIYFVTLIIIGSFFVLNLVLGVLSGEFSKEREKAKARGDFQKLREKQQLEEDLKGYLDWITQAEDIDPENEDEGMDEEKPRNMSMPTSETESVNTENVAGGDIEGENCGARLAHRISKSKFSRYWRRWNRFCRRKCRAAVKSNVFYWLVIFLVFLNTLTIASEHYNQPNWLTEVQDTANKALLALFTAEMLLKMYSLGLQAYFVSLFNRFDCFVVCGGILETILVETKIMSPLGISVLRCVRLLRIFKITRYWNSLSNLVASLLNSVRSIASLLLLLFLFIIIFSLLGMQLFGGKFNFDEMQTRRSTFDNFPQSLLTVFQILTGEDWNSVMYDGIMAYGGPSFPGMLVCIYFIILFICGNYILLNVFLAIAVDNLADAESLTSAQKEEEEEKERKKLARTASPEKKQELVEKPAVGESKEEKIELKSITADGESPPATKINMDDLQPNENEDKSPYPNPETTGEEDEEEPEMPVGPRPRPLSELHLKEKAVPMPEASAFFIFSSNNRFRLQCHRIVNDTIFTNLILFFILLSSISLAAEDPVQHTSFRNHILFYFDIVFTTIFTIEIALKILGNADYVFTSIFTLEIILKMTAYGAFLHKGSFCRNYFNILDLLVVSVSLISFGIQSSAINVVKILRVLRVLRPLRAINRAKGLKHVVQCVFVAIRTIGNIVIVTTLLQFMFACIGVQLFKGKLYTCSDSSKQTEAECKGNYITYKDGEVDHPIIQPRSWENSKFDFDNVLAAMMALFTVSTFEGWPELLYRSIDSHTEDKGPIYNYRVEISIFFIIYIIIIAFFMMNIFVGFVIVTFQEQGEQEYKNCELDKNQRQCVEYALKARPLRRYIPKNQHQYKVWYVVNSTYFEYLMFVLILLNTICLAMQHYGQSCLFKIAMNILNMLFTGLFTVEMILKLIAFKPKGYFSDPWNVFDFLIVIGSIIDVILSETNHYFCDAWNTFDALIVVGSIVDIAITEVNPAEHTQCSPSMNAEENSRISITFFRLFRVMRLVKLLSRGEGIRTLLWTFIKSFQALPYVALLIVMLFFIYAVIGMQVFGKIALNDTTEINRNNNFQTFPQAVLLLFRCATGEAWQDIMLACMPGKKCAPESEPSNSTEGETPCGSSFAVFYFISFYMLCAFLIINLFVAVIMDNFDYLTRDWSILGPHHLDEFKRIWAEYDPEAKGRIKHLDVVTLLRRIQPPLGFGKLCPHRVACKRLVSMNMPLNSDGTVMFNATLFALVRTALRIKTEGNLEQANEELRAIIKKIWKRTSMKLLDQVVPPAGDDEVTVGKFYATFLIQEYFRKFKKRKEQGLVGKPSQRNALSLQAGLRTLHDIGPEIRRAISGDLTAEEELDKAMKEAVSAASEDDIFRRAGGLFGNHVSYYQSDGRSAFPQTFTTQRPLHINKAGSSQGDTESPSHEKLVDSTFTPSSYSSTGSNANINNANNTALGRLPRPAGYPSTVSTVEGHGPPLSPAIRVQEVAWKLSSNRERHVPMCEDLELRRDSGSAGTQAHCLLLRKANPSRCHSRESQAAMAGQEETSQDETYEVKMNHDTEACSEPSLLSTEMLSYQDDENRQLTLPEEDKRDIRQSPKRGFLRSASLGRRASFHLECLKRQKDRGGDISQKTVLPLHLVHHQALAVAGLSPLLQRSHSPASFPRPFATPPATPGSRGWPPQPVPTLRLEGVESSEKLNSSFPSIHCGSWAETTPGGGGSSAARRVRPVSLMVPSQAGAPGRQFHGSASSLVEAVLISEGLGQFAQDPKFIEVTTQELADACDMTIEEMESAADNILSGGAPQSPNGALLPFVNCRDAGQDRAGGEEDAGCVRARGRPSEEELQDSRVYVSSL

[41] = Solubility of the compound; format: physicochemical
[42] = Drug metabolism in rat liver microsomes assessed as oxidation of banzamide; format: ADME
[43] = Oral bioavailability in rhesus monkey at 10 mg/kg; format: ADME, organism-based, Macaca mulatta; details: in vivo

Structure (SMILES) | fraction unbound [1] | Ratio Ki (CHO) | pKd [5] | pIC50 (Orexin receptor type 2 [6]) | bioavailability [9] | CLint scaled [10] | fraction unbound [11] | pKi (Orexin receptor type 2 [12]) | clearance [13] | K [14] | solubility [16] | Ratio IC50 (Rattus norvegicus [17]) | pIC50 [18] | fraction unbound [20] | Papp [22] | CLint scaled [24] | half-life [25] | solubility [26] | CLint scaled [29] | pKi [36] | also measured
O=C(c1cccn2cncc12)N1CCC(F)(F)[C@@H](Oc2ccc3ccccc3n2)C1 | 0.08 | 561 | 9.03 | < 5.00 | 13% | 485 mL/min/kg | 0.11 | 6.00 | 75 mL/min/kg | 1.08 ×10⁸ /M/s | 194 µM (≈ 79.2 µg/mL) | > 625 | 7.52 | 0.06 | 35 ×10⁻⁶ cm/s | 62 mL/min/kg | 0.8 h | 171 µM (≈ 69.8 µg/mL) | 320 mL/min/kg | 8.74 | AUC [2]: 8.3 µM·h; Cmax [3]: 5 µM; bioavailability [4]: 1%; pKi (Orexin receptor type 2 [7]): < 5.00; pKi [8]: 5.00 to 5.17; Cmax [15]: 0.73 µM; Occ50 (Rattus norvegicus [19]): 0.032 µM; AUC [21]: 0.77 µM·h; AUC [23]: 153 µM·h; clearance [27]: 38 mL/min/kg; half-life [28]: 0.5 h; bioavailability [30]: 37%; K [31]: 0.102 s⁻¹; half-life [32]: 2.8 h; fraction unbound [33]: 0.08; Ratio IC50 [34]: 3 to 4; CLint scaled [35]: 775 mL/min/kg; clearance [37]: 33 mL/min/kg; Cmax [38]: 24 µM
O=C(c1ccccc1-n1nccn1)N1CCC(F)(F)[C@@H](Oc2ccc3ccccc3n2)C1 | < 0.01 | 400 to 401 |  | 5.38 |  |  | < 0.01 |  |  |  | < 26 µM | 119 | 7.05 |  |  |  |  | < 26 µM |  | 8.89 | pIC50 (Orexin receptor type 2 [7]): 5.38 to 5.88; pIC50 [8]: 7.96; INH [39]: 6.7 µM; INH [40]: 3.8 µM
O=C(c1cccc(-n2ccnn2)c1)N1CCC(F)(F)[C@@H](Oc2ccc3ccccc3n2)C1 |  | 1230 |  |  | < 1% |  |  | 5.37 | 81 mL/min/kg |  |  |  |  |  |  |  |  |  | 1200 mL/min/kg | 8.46 | solubility [41]: Soluble; Drug metabolism [42]: Metabolite_Detected
O=C(c1nccc2[nH]cnc12)N1CCC(F)(F)[C@@H](Oc2ccc3ccccc3n2)C1 | 0.2 | 411 | 8.32 | < 5.00 | 22% | < 75 mL/min/kg | 0.14 | 5.67 | 45 mL/min/kg | 4.43 ×10⁷ /M/s | 192 µM (≈ 78.6 µg/mL) | > 625 | 7.24 | 0.16 | 33 ×10⁻⁶ cm/s | 55 mL/min/kg | 2 h | 182 µM (≈ 74.5 µg/mL) | 267 mL/min/kg | 8.28 | pIC50 (Orexin receptor type 2 [7]): < 5.00; pIC50 [8]: 7.80; bioavailability [43]: 16%; clearance [27]: 12 mL/min/kg; half-life [28]: 1 h; Drug metabolism [42]: Metabolite_Notdetected; bioavailability [30]: 63%; K [31]: 0.21 s⁻¹; half-life [32]: 3.2 h; fraction unbound [33]: 0.17; Ratio IC50 [34]: 3 to 4; CLint scaled [35]: 189 mL/min/kg; clearance [37]: 25 mL/min/kg
O=C(c1ccnc2[nH]ccc12)N1CCC(F)(F)[C@@H](Oc2ccc3ccccc3n2)C1 |  | 626 |  |  |  |  |  | 5.81 |  |  | > 150 µM |  |  |  |  |  |  | > 150 µM |  | 8.60 | inhibition (INH) [39]: Active; inhibition (INH) [40]: Active
